The conditions of data set [1]: oral administration; cited from earlier work.
For data set [2] the following is noted: aqueous solution including 40% of a cosolvent and 10% of a surfactant or inclusion compound forming agent (hydroxypropyl-β-cyclodextrin); cited from earlier work.
Data set [3] can be described thus: Dissolution test (USP paddle method, purified water). The format is physicochemical. As to conditions: after 3 hours; 900 mL purified water, paddle 50 rpm, 25 mg IH-901 equivalent. As for the experimental part:
The dissolution profile of a drug from the solid dispersion prepared in Example 2 was evaluated. IH-901, which had been used to prepare the solid dispersion of […], was used as a control group. The dissolution test was carried out under the conditions that the second method (paddle method) of the dissolution test methods in the general test method of the United states Phamacopoeia was used, 900 mL of purified water was used as a test liquid, and the rotational speed of a paddle was 50 rpm. 25 mg of IH-901 (control group) or the solid dispersion prepared in Example 2 corresponding to 25 mg of IH-901 was dissolved in a dissolution liquid, left for 180 minutes and then filtered. Then, the content of IH-901 in the filtered solution was measured by high performance liquid chromatography. The high performance liquid chromatograph is commercially available from Hitachi Co., Ltd. The analysis of high performance liquid chromatography was conducted under the conditions of a C18 column (Luna, 5 um, 250 mm, Phenomenex Corp., U.S.A), mobile phase of acetonitrile:water (70:30), a flow rate of 1 mL/min, a detection wavelength of 205 nm and an injection volume of 50 ul. In FIG. 1, the X-axis represents time passage, and the Y-axis represents dissolution rate (%). Further, in FIG. 1, the raw material is represented as ◯, and the solid dispersion prepared in Example 2 is represented by […].

For the compound `CC(C)=CCC[C@](C)(O[C@@H]1O[C@H](CO)[C@@H](O)[C@H](O)[C@H]1O)[C@H]1CC[C@]2(C)[C@@H]1[C@H](O)C[C@@H]1[C@@]3(C)CC[C@H](O)C(C)(C)[C@@H]3CC[C@]12C` [IH-901, 20-O-β-D-glucopyranosyl-20(S)-protopanaxadiol], the bioavailability in data set [1] was 3.5%. In data set [2], the “solubility of IH-901 in an aqueous solution” value is at most 10000 µg/mL. Besides, the dissolution rate entry in data set [3] is recorded as “about 3%”.

One may read the bioavailability as dose-corrected exposure relative to a reference, in per cent.

(Values after US20120322752A1, “SOLID DISPERSIONS CONTAINING 20-O-beta-D-GLUCOPYRANOSYL-20(S)-PROTOPANAXADIOL” (priority 2009, published 2012).)
